Numbered stars: 1 amine (or outer) side, 2 acyl side, 3 side chain; on linkers, the order of the positions; unused ones are H or OH. Bridge positions count the residues as written; N and C are the ends. Square brackets hold non-standard residues; d marks the D form. Peptide text beside a SMILES is read from it. * marks the point of attachment. ξ: configuration not given here. NMeGABA = CN(CCCC(=O)[*:2])[*:1]; Thr(3ξ) = CC(O)[C@H](N)C(=O)O; Dab = NCC[C@H](N)C(=O)O; X16 = CN(C)CCCC(=O)*; Glycolyl = O=C(CO)*; X15 = O=C(C1CCNC1)*; Ava = NCCCCC(=O)O
Key:
Type in all cases: cell-based
Acinetobacter baumannii [1] = assay: MIC, compound in combination with a second agent (broth microdilution); conditions: 1:1 (wt:wt) combination with Rifampicin; MIC = total drug concentration; strain NCTC 13424
Method: (§1) To evaluate the potency and spectrum of the compounds both alone and in combination with another agent, susceptibility testing was performed against up to four strains of each of the four Gram negative pathogens, Escherichia coli, Pseudomonas aeruginosa, Klebsiella pneumoniae and Acinetobacter baumannii.
(§2) Ratios of components in a combination, such as 1:1, refers to a weight to weight ratio. The minimum inhibitory concentration (MIC) refers to the total drug concentration (e.g. test compound plus second agent, such as Rifampicin).
(§3) The inoculum was prepared by making a direct suspension of isolated colonies (selected from an 18-24 hour Mueller-Hinton agar plate) adjusted to the 0.5 McFarland standard.
(§4) The assays were performed in duplicate.
(§5) In cases where the duplicate values varied by less than 2-fold, the lower of the two values is reported. If a variation of greater than 2-fold was observed, the assay was considered non-valid. Several of the compounds were subjected to multiple tests, and where this is the case, the MIC reflects the modal value obtained.
(§6) The minimum inhibitory concentration refers to the total drug concentration (e.g. test compound plus Rifampicin). The compounds are used at equal mass within the combination. The weight refers to the mass of compound as used, for example the Example Compounds are used in their TFA or sulphate salt forms.
(§7) MICs refer to the total drug concentration. Thus, where a 1:1 combination is used, this is the amount of the test compound plus the second agent. For comparison, the MIC values for the second agent alone are also given.

Klebsiella pneumoniae [2] = assay: as above; conditions: 1:1 (wt:wt) combination with Rifampicin, MIC = total drug concentration; for MIC K. pneumoniae ATCC-BAA-2146: strain ATCC-BAA-2146; for MIC K. pneumoniae CCUG-59348: strain CCUG-59348; for MIC K. pneumoniae NCTC 13438: strain NCTC 13438
Method: as §1, §2, §3, §4, §5, §6, §7

Pseudomonas aeruginosa [3] = assay: as above; conditions: 1:1 (wt:wt) combination with Rifampicin, MIC = total drug concentration; for MIC P. aeruginosa CCUG 59626: strain CCUG 59626
Method: as §1, §2, §3, §4, §5, §6, §7

Escherichia coli = assay: MIC, sole activity (no second agent)
Outline: (§8)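 Up to four strains per species were tested in cation-adjusted Mueller-Hinton broth, with inoculum made by direct colony suspension from 18-24 hour Mueller-Hinton agar plates, adjusted to 0.5 McFarland. Duplicates differing by under 2-fold gave the lower value; greater spread voided the run. Values are relative to Polymyxin B.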

Klebsiella pneumoniae [4] = assay: MIC, sole activity (no second agent)
Outline: as §8

Pseudomonas aeruginosa [5] = assay: MIC, sole activity (no second agent); conditions: for MIC P. aeruginosa ATCCCRM-9027: strain ATCCCRM-9027
Outline: as §8

Acinetobacter baumannii [6] = assay: MIC, sole activity (no second agent); conditions: for MIC A. baumannii ATCCBAA-747 / MIC A. baumannii NCTC 13423: in the absence of Rifampicin; for MIC A. baumannii ATCCBAA-747: strain ATCCBAA-747; for MIC A. baumannii NCTC 13423: strain NCTC13423; for MIC A. baumannii ATCC BAA-747 / MIC A. baumannii NCTC 13424: Table 6A, no second agent, different supplier of Cation-adjusted MHB
Outline: as §8

[7] = in the absence of Rifampicin, strain ATCC25922
[8] = in the absence of Rifampicin, strain ATCC 4352
[9] = in the absence of Rifampicin, strain ATCC27853
[10] = Table 6A, no second agent, different supplier of Cation-adjusted MHB

Row | Molecule | MIC K. pneumoniae ATCC-BAA-2146 (Klebsiella pneumoniae [2]) [micrograms/mL] | MIC K. pneumoniae CCUG-59348 (Klebsiella pneumoniae [2]) [micrograms/mL] | MIC P. aeruginosa CCUG 59626 (Pseudomonas aeruginosa [3]) [micrograms/mL] | MIC E. coli ATCC25922 (Escherichia coli; [7]) [micrograms/mL] | MIC K. pneumoniae ATCC 4352 (Klebsiella pneumoniae [4]; [8]) [micrograms/mL] | MIC P. aeruginosa ATCC 27853 (Pseudomonas aeruginosa [5]; [9]) [micrograms/mL] | MIC A. baumannii ATCC BAA-747 (Acinetobacter baumannii [6]) [micrograms/mL] | MIC A. baumannii NCTC 13424 (Acinetobacter baumannii [6]) [micrograms/mL] | MIC E. coli ATCC25922 (Escherichia coli; [10]) [micrograms/mL] | MIC E. coli NCTC 13441 (Escherichia coli; [10]) [micrograms/mL] | MIC K. pneumoniae ATCC 4352 (Klebsiella pneumoniae [4]; [10]) [micrograms/mL] | MIC P. aeruginosa ATCC 27853 (Pseudomonas aeruginosa [5]; [10]) [micrograms/mL] | MIC P. aeruginosa CCUG 59347 (Pseudomonas aeruginosa [5]; [10]) [micrograms/mL] | also measured
1 | CC(C)C[C@@H]1NC(=O)[C@@H](Cc2ccccc2)NC(=O)[C@H](CCN)NC(=O)[C@@H](NC(=O)[C@H](CCN)NC(=O)[C@@H](NC(=O)CC(C)O)C(C)O)CCNC(=O)[C@H](C(C)O)NC(=O)[C@H](CCN)NC(=O)[C@H](CCN)NC1=O (mixture of isomers) [Example 15, 3(RS)-3- Hydroxybutanoyl polymyxin B nonapeptide] | 4 | 16 | 0.5 | 4 | 8 | 0.5 | – | – | – | – | – | – | – | MIC A. baumannii NCTC 13424 (Acinetobacter baumannii [1]): 0.5 micrograms/mL
2 | CC(C)C[C@@H]1NC(=O)[C@@H](Cc2ccccc2)NC(=O)[C@H](CCN)NC(=O)[C@@H](NC(=O)[C@H](CCN)NC(=O)[C@@H](NC(=O)CCCCN)C(C)O)CCNC(=O)[C@H](C(C)O)NC(=O)[C@H](CCN)NC(=O)[C@H](CCN)NC1=O (stereo partly drawn) [Example 6, 5-Aminopentanoyl polymyxin B nonapeptide] (H-[Ava][Thr(3ξ)][Dab][Dab][Dab][dF]L[Dab][Dab][Thr(3ξ)]; lactam 4-C) | – | 4 | ≤0.06 | 2 | 0.5 | 0.25 | – | – | – | – | – | – | – | MIC A. baumannii ATCCBAA-747 (Acinetobacter baumannii [6]): 8 micrograms/mL; MIC A. baumannii NCTC 13423 (Acinetobacter baumannii [6]): 4 micrograms/mL; MIC E. coli NCTC9001 (Escherichia coli; in the absence of Rifampicin, strain NCTC9001): 2 micrograms/mL; MIC P. aeruginosa ATCCCRM-9027 (Pseudomonas aeruginosa [5]; in the absence of Rifampicin): 0.125 micrograms/mL
3 | CC(C)C[C@@H]1NC(=O)[C@@H](Cc2ccccc2)NC(=O)[C@H](CCN)NC(=O)[C@@H](NC(=O)[C@H](CCN)NC(=O)[C@@H](NC(=O)CO)C(C)O)CCNC(=O)[C@H](C(C)O)NC(=O)[C@H](CCN)NC(=O)[C@H](CCN)NC1=O (stereo partly drawn) [Example 8, Hydroxyacetyl polymyxin B nonapeptide] (Glycolyl-[Thr(3ξ)][Dab][Dab][Dab][dF]L[Dab][Dab][Thr(3ξ)]; lactam 3-C) | 2 | 8 | 0.25 | 32 | 8 | 0.25 | – | – | – | – | – | – | – | MIC A. baumannii NCTC 13424 (Acinetobacter baumannii [1]): 0.5 micrograms/mL
4 | CC(C)C[C@@H]1NC(=O)[C@@H](Cc2ccccc2)NC(=O)[C@H](CCN)NC(=O)[C@@H](NC(=O)[C@H](CCN)NC(=O)[C@@H](NC(=O)C2CCNC2)C(C)O)CCNC(=O)[C@H](C(C)O)NC(=O)[C@H](CCN)NC(=O)[C@H](CCN)NC1=O (stereo partly drawn) [Example 9, [3(R,S)-Pyrrolidine-3-carbonyl]polymyxin B nonapeptide] (X15-[Thr(3ξ)][Dab][Dab][Dab][dF]L[Dab][Dab][Thr(3ξ)]; lactam 3-C) | 1 | 8 | 0.125 | 0.5 | 0.5 | 0.25 | – | – | – | – | – | – | – | MIC K. pneumoniae NCTC 13438 (Klebsiella pneumoniae [2]): 0.25 micrograms/mL; MIC A. baumannii ATCCBAA-747 (Acinetobacter baumannii [6]): 4 micrograms/mL; MIC A. baumannii NCTC 13423 (Acinetobacter baumannii [6]): 2 micrograms/mL; MIC P. aeruginosa ATCCCRM-9027 (Pseudomonas aeruginosa [5]; in the absence of Rifampicin): 2 micrograms/mL
5 | CC(C)C[C@@H]1NC(=O)[C@@H](Cc2ccccc2)NC(=O)[C@H](CCN)NC(=O)[C@@H](NC(=O)[C@H](CCN)NC(=O)[C@@H](NC(=O)CCCN(C)C)C(C)O)CCNC(=O)[C@H](C(C)O)NC(=O)[C@H](CCN)NC(=O)[C@H](CCN)NC1=O (stereo partly drawn) [Example 11, 4-(N,N-dimethylamino)-butanoyl polymyxin B nonapeptide] (X16-[Thr(3ξ)][Dab][Dab][Dab][dF]L[Dab][Dab][Thr(3ξ)]; lactam 3-C) | 0.5 | 4 | 0.25 | 0.5 | 0.5 | 0.125 | – | – | – | – | – | – | – | MIC K. pneumoniae NCTC 13438 (Klebsiella pneumoniae [2]): 1 micrograms/mL; MIC A. baumannii ATCCBAA-747 (Acinetobacter baumannii [6]): 16 micrograms/mL; MIC A. baumannii NCTC 13423 (Acinetobacter baumannii [6]): 4 micrograms/mL; MIC P. aeruginosa ATCCCRM-9027 (Pseudomonas aeruginosa [5]; in the absence of Rifampicin): 2 micrograms/mL
6 | CNCCCC(=O)N[C@H](C(=O)N[C@@H](CCN)C(=O)N[C@H]1CCNC(=O)[C@H](C(C)O)NC(=O)[C@H](CCN)NC(=O)[C@H](CCN)NC(=O)[C@H](CC(C)C)NC(=O)[C@@H](Cc2ccccc2)NC(=O)[C@H](CCN)NC1=O)C(C)O (stereo partly drawn) [Example 16, 4-(N-methylamino)-butanoyl polymyxin B nonapeptide] (NMeGABA-[Thr(3ξ)][Dab][Dab][Dab][dF]L[Dab][Dab][Thr(3ξ)]; lactam 3-C) | – | – | 0.125 | 0.5 | 0.5 | 0.25 | – | – | – | – | – | – | – | MIC A. baumannii NCTC 13424 (Acinetobacter baumannii [1]): 0.125 micrograms/mL; MIC K. pneumoniae NCTC 13438 (Klebsiella pneumoniae [2]): 0.5 micrograms/mL; MIC P. aeruginosa ATCC CRM-9027 (Pseudomonas aeruginosa [3]; strain ATCC CRM-9027): 0.125 micrograms/mL
7 | [3(R,S)-3-Amino-3- cyclohexanepropanoyl]-L- Phe- polymyxin B nonapeptide isomer 2 [Example A21] | – | – | – | – | – | – | >8 | >8 | >8 | >8 | >8 | >8 | >8 | MIC K. pneumoniae ATCC BAA-2146 (Klebsiella pneumoniae [4]; [10]): >8 micrograms/mL
8 | [3(R,S)-3-Amino-3- cyclohexanepropanoyl]-L- Pro- polymyxin B nonapeptide isomer 1 [Example A8] | – | – | – | – | – | – | >8 | >8 | >8 | >8 | >8 | 2 | 4 | –
9 | [3(R,S)-3-Amino-3- cyclohexanepropanoyl]-L- Pro- polymyxin B nonapeptide isomer 2 [Example A9] | – | – | – | – | – | – | >8 | >8 | >8 | >8 | >8 | 2 | >8 | –
10 | [3(R,S)-3-Amino-3- cyclohexanepropanoyl]-L- Ser- polymyxin B nonapeptide [Example A11] | – | – | – | – | – | – | 4 | 4 | >8 | 8 | 8 | 1 | 2 | –
11 | [3(R,S)-3-Amino-3- cyclohexanepropanoyl]-L- Tyr- polymyxin B nonapeptide [Example A27] | – | – | – | – | – | – | 8 | >8 | >8 | >8 | >8 | – | 4 | MIC K. pneumoniae ATCC BAA-2146 (Klebsiella pneumoniae [4]; [10]): >8 micrograms/mL
12 | [3(R,S)-3-Amino-3- cyclohexanepropanoyl]-[4R- 4-hydroxy-L-Pro]-polymyxin B nonapeptide [Example A12] | – | – | – | – | – | – | 8 | 8 | >8 | >8 | >8 | 2 | 4 | –
